Results as given in publication PMC8271864, “Evaluation of Enzyme Inhibitory Activity of Flavonoids by Polydopamine-Modified Hollow Fiber-Immobilized Xanthine Oxidase” (Molecules, 2021).

Molecular target: T1, Xanthine oxidase (XOD) (Bos taurus, UniProt P80457)
T1 construct: gene XDH; commercial XOD immobilized on polydopamine-modified hollow fiber (XOD@PDA@HF)
Experiment: immobilized enzyme inhibition at […], hypoxanthine substrate, HPLC detection of uric acid
Type: biochemical

T1 sequence (P80457 2-1332): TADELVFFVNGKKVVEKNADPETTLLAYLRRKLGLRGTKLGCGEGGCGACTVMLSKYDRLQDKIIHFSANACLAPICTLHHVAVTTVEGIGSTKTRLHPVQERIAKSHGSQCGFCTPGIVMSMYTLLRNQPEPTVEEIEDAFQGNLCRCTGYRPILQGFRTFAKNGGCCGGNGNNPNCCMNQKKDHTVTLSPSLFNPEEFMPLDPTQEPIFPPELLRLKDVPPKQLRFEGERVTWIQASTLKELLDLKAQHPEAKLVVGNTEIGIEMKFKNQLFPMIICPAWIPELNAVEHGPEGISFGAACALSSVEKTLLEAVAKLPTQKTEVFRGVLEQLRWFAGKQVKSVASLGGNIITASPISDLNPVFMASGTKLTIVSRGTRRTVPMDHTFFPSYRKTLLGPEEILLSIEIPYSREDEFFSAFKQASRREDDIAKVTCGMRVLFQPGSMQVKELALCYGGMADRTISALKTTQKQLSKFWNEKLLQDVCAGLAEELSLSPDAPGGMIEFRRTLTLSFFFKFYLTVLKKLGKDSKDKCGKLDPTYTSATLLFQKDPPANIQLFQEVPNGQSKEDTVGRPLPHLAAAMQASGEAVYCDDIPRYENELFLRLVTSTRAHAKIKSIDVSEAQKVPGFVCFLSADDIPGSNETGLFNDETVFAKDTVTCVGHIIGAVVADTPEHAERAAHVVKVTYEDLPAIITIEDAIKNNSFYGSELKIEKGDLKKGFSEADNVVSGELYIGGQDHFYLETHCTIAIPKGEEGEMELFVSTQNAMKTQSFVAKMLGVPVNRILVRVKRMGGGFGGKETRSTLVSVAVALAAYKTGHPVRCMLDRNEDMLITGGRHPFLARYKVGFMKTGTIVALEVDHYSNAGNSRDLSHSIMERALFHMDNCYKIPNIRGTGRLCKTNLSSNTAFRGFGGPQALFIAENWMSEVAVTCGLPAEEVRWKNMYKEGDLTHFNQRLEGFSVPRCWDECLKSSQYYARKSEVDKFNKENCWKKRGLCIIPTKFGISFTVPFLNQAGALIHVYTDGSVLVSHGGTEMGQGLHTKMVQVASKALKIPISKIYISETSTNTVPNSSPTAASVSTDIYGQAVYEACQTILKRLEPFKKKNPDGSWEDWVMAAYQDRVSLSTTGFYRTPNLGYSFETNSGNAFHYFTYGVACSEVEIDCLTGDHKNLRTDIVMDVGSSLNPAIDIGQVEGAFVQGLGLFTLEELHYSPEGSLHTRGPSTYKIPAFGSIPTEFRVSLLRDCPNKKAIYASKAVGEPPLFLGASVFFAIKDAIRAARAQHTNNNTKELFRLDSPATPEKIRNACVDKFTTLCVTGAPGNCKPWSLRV

| SMILES | inhibition at 1000 µM |
| --- | --- |
| O=c1c(O)c(-c2ccc(O)c(O)c2)oc2cc(O)cc(O)c12 [Quercetin] | 79.9 ± 3.5% |
| O=c1c(-c2ccc(O)cc2)coc2c([C@@H]3O[C@H](CO)[C@@H](O)[C@H](O)[C@H]3O)c(O)ccc12 [Puerarin] | 61.1 ± 6.26% |
| O=c1cc(-c2ccc(O)cc2)oc2cc(O)cc(O)c12 [Apigenin] | 80.98 ± 0.64% |
| Oc1cc(O)c2c(c1)O[C@H](c1cc(O)c(O)c(O)c1)[C@H](O)C2 [Epigallocatechin] | 54.92 ± 0.41% |
